Measured values reported in ChEMBL document CHEMBL1201862, “PubChem BioAssay data set” (2004).
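Where inhibition never reached the appropriate level, the endpoint shown equals the highest concentration tested. Otherwise, values were interpolated linearly from a five-concentration, 48-hour dose response in 96-well plates. GI50 is the concentration that inhibits growth by half.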 The source made the active and inactive calls. No stated cut-off is given here; in the data, active = GI50 up to about 1.1 µM and inactive = higher.

Key:
Assay in all cases: NCI anticancer screen, dose series, 48 h
[1] = tested on: SK-OV-3
[2] = tested on: HL-60
[3] = tested on: MOLT-4
[4] = tested on: NCI-H23
[5] = tested on: K562
[6] = tested on: RPMI-8226
[7] = tested on: SK-MEL-28
[8] = tested on: A498
[9] = tested on: HCT-116
[10] = tested on: SF-268
[11] = tested on: Malme-3M
[12] = tested on: NCI-H226
[13] = tested on: A549
[14] = tested on: EKVX
[15] = tested on: SN12C
[16] = tested on: OVCAR-4
[17] = tested on: MCF7
[18] = tested on: NCI/ADR-RES
[19] = tested on: PC-3
[20] = tested on: T47D

SMILES: CN(C=O)/C=C/c1cc(O)ccc1O
- GI50 [1]: > 86.1 µM (inactive)
- GI50 [2]: 14.2 µM (inactive)
- GI50 [3]: 10.8 µM (inactive)
- GI50 [4]: 36.8 µM (inactive)
- GI50 [5]: 24.9 µM (inactive)
- GI50 [6]: 26.1 µM (inactive)
- GI50 [7]: > 42.1 µM (inactive)
- GI50 [8]: > 68.2 µM (inactive)
- GI50 [9]: 33 µM (inactive)
- GI50 [10]: 25.8 µM (inactive)
- GI50 [11]: 39.4 µM (inactive)
- GI50 [12]: 39.7 µM (inactive)
- GI50 [13]: > 78 µM (inactive)
- GI50 [14]: 40.6 µM (inactive)
- GI50 [15]: 20.9 µM (inactive)
- GI50 [16]: 17.6 µM (inactive)

SMILES: COC(=O)[C@H]1C=C[C@@H](C)n2c(=O)c3ccccc3c(=O)n21
- GI50 [1]: > 100 µM (inactive)
- GI50 [2]: > 100 µM (inactive)
- GI50 [3]: > 100 µM (inactive)
- GI50 [4]: > 100 µM (inactive)
- GI50 [5]: > 100 µM (inactive)
- GI50 [6]: > 100 µM (inactive)
- GI50 [7]: > 100 µM (inactive)
- GI50 [8]: > 100 µM (inactive)
- GI50 [9]: > 100 µM (inactive)
- GI50 [10]: > 100 µM (inactive)
- GI50 [11]: > 100 µM (inactive)
- GI50 [12]: > 100 µM (inactive)
- GI50 [13]: > 100 µM (inactive)
- GI50 [14]: > 100 µM (inactive)
- GI50 [15]: > 100 µM (inactive)
- GI50 [16]: > 100 µM (inactive)

SMILES: CN1CCN(c2n[nH]c(=O)c3c2nnn3Cc2ccccc2)CC1
- GI50 [17]: > 100 µM (inactive)
- GI50 [2]: > 100 µM (inactive)
- GI50 [3]: > 100 µM (inactive)
- GI50 [4]: > 100 µM (inactive)
- GI50 [5]: > 100 µM (inactive)
- GI50 [6]: > 100 µM (inactive)
- GI50 [7]: > 100 µM (inactive)
- GI50 [9]: > 100 µM (inactive)
- GI50 [10]: > 100 µM (inactive)
- GI50 [11]: > 100 µM (inactive)
- GI50 [13]: > 100 µM (inactive)
- GI50 [18]: > 100 µM (inactive)
- GI50 [14]: > 100 µM (inactive)
- GI50 [19]: 5.89 µM (inactive)
- GI50 [15]: 15.5 µM (inactive)
- GI50 [16]: > 100 µM (inactive)

SMILES: COC(CC1(OC)OC(=O)C=C1N)OC (stereo not given)
- GI50 [1]: > 100 µM (inactive)
- GI50 [2]: > 100 µM (inactive)
- GI50 [3]: > 100 µM (inactive)
- GI50 [4]: > 100 µM (inactive)
- GI50 [5]: > 100 µM (inactive)
- GI50 [6]: > 100 µM (inactive)
- GI50 [7]: > 100 µM (inactive)
- GI50 [8]: > 100 µM (inactive)
- GI50 [9]: > 100 µM (inactive)
- GI50 [10]: > 100 µM (inactive)
- GI50 [11]: > 100 µM (inactive)
- GI50 [12]: > 100 µM (inactive)
- GI50 [13]: > 100 µM (inactive)
- GI50 [14]: > 100 µM (inactive)
- GI50 [15]: > 100 µM (inactive)
- GI50 [16]: > 100 µM (inactive)

SMILES: COC(=O)c1cccc2cccc(C(=O)Nc3ccc(C)cc3C)c12
- GI50 [1]: > 100 µM (inactive)
- GI50 [2]: 1.08 µM (active)
- GI50 [3]: 48.5 µM (inactive)
- GI50 [4]: > 100 µM (inactive)
- GI50 [5]: > 100 µM (inactive)
- GI50 [6]: 22.5 µM (inactive)
- GI50 [7]: > 100 µM (inactive)
- GI50 [8]: 33 µM (inactive)
- GI50 [9]: > 100 µM (inactive)
- GI50 [10]: > 100 µM (inactive)
- GI50 [11]: > 100 µM (inactive)
- GI50 [12]: > 100 µM (inactive)
- GI50 [13]: > 100 µM (inactive)
- GI50 [14]: > 100 µM (inactive)
- GI50 [15]: > 100 µM (inactive)
- GI50 [16]: 93.8 µM (inactive)

SMILES: CC(=O)c1ccc(NC(=O)C(=O)C(C(=O)/C=C/c2ccccc2)C2OC(=O)c3ccccc32)cc1 (stereo not given)
- GI50 [1]: > 100 µM (inactive)
- GI50 [2]: > 100 µM (inactive)
- GI50 [3]: 77.4 µM (inactive)
- GI50 [4]: > 100 µM (inactive)
- GI50 [5]: 74.5 µM (inactive)
- GI50 [6]: 54.2 µM (inactive)
- GI50 [7]: > 100 µM (inactive)
- GI50 [8]: > 100 µM (inactive)
- GI50 [9]: > 100 µM (inactive)
- GI50 [10]: > 100 µM (inactive)
- GI50 [11]: > 100 µM (inactive)
- GI50 [12]: > 100 µM (inactive)
- GI50 [13]: > 100 µM (inactive)
- GI50 [14]: > 100 µM (inactive)
- GI50 [15]: > 100 µM (inactive)
- GI50 [16]: > 100 µM (inactive)

SMILES: O=C(c1ccccc1)N1C2C3CC(OCc4ccccc4)(OCc4ccccc4)C(O3)C21 (stereo not given)
- GI50 [1]: > 100 µM (inactive)
- GI50 [2]: > 100 µM (inactive)
- GI50 [3]: > 100 µM (inactive)
- GI50 [4]: > 100 µM (inactive)
- GI50 [5]: 62.2 µM (inactive)
- GI50 [6]: 54.2 µM (inactive)
- GI50 [7]: > 100 µM (inactive)
- GI50 [8]: > 100 µM (inactive)
- GI50 [9]: > 100 µM (inactive)
- GI50 [10]: > 100 µM (inactive)
- GI50 [11]: > 100 µM (inactive)
- GI50 [12]: > 100 µM (inactive)
- GI50 [13]: > 100 µM (inactive)
- GI50 [14]: > 100 µM (inactive)
- GI50 [15]: > 100 µM (inactive)
- GI50 [16]: > 100 µM (inactive)

SMILES: CCCCCCC(O)C/C=C/CCCCCC/C(C(=O)OC)=C(/O)C(=O)OCC (stereo not given)
- GI50 [1]: > 100 µM (inactive)
- GI50 [2]: 67.1 µM (inactive)
- GI50 [3]: 72.8 µM (inactive)
- GI50 [4]: > 100 µM (inactive)
- GI50 [5]: 97.7 µM (inactive)
- GI50 [6]: > 100 µM (inactive)
- GI50 [7]: > 100 µM (inactive)
- GI50 [8]: > 100 µM (inactive)
- GI50 [9]: > 100 µM (inactive)
- GI50 [10]: > 100 µM (inactive)
- GI50 [11]: > 100 µM (inactive)
- GI50 [12]: > 100 µM (inactive)
- GI50 [13]: > 100 µM (inactive)
- GI50 [14]: > 100 µM (inactive)
- GI50 [15]: > 100 µM (inactive)
- GI50 [16]: > 100 µM (inactive)

SMILES: COc1c2c(cc3oc(=O)ccc13)OC(C)(C)C=C2 [XANTHOXYLETIN]
- GI50 [20]: 1.48 µM (inactive)
- GI50 [1]: 40.5 µM (inactive)
- GI50 [17]: 25.4 µM (inactive)
- GI50 [2]: 15.8 µM (inactive)
- GI50 [3]: 23.8 µM (inactive)
- GI50 [4]: 23.6 µM (inactive)
- GI50 [5]: 35.2 µM (inactive)
- GI50 [6]: 24.5 µM (inactive)
- GI50 [7]: 32.6 µM (inactive)
- GI50 [9]: 18.6 µM (inactive)
- GI50 [10]: 41.9 µM (inactive)
- GI50 [11]: 30.1 µM (inactive)
- GI50 [12]: 41.1 µM (inactive)
- GI50 [13]: 31.7 µM (inactive)
- GI50 [18]: 26 µM (inactive)
- GI50 [14]: 37.9 µM (inactive)
- GI50 [15]: 29 µM (inactive)
